According to patent US6979686B1, “Substituted pyrazoles as p38 kinase inhibitors” (Pharmacia Corporation, priority 2001, dated 2005):
pIC50: −log10 of the molar value. Like-named read-outs stand apart in the source and are kept apart here. Blank lines part the entries; values can stand above or below the molecule they belong to.

Columns and labels:
human p38 kinase alpha = biological target: T1, human p38 kinase alpha (Homo sapiens, UniProt Q16539); assay: p38 kinase in vitro assay, phosphorylation of biotinylated PHAS-I with 32P-ATP; type: biochemical; settings: for pIC50: read-out: P38 alpha kinase IC50; for inhibition at 1 µM: read-out: P38 alpha kinase % inhib @ conc.
T1 construct: GST (N, cleaved yes); made in house; host or cells: E. coli DH10B

[1] = tested on: TNF-α, U937 human histiocytic lymphoma cell line; assay: LPS stimulation of TNF production by U937 cells; type: cell-based; settings: for U937 Cell IC50, uM or % inhib @ conc. (uM): % inhib / U937 Cell % inhib @ conc.: @ 10.0 uM; for U937 Cell % inhib @ conc.: LPS-stimulated U937 cells; for pIC50: human U937 cells stimulated with LPS, read-out: U937 Cell IC50; for inhibition at 1 µM: U-937, @ 1.0 uM; for U937 Cell % inhib @ conc. (uM): @ 1.0 uM
Procedure: Maintenance and Differentiation of the U937 Human Histiocytic Lymphoma Cell Line:
Fifty million cells in 100 ml media were induced to terminal monocytic differentiation by 24 hour incubation with 20 ng/ml phorbol 12-myristate 13-acetate (Sigma). The cells were washed by centrifugation (200×g for 5 min) and resuspended in 100 ml fresh medium. After 24-48 hours, the cells were harvested, centrifuged, and resuspended in culture medium at 2 million cells/ml.
LPS Stimulation of TNF Production by U937 Cells:
Compounds were prepared as 10 mM stock solutions in DMSO and diluted in culture medium to yield a final DMSO concentration of 0.1% in the cell assay. LPS (E coli, 100 ng/ml final concentration) was then added at a volume of 0.02 ml. After 4 hour incubation at 37° C., the amount of TNF-α released in the culture medium was quantitated by ELISA. Inhibitory potency is expressed as IC50 (μM).
In vitro whole cell assay for measuring the ability of the compounds to inhibit TNF production in human U937 cells stimulated with LPS are shown in the column identified as: • “U937 Cell IC50, uM or % inhib @ conc., (uM)”

[2] = TNF production, U937 cells stimulated with LPS
[3] = in vitro P38-alpha kinase inhibition
[4] = Homo sapiens, U-937, TNF production
[5] = Homo sapiens, TNF production in human U937 cells stimulated with LPS, read-out: U937 Cell % inhib @ conc.
[6] = Homo sapiens, TNF production, U937 cells stimulated with LPS, read-out: U937 Cell % inhib @ conc.
[7] = TNF production in human U937 cells stimulated with LPS

T1 sequence (Q16539 whole entry): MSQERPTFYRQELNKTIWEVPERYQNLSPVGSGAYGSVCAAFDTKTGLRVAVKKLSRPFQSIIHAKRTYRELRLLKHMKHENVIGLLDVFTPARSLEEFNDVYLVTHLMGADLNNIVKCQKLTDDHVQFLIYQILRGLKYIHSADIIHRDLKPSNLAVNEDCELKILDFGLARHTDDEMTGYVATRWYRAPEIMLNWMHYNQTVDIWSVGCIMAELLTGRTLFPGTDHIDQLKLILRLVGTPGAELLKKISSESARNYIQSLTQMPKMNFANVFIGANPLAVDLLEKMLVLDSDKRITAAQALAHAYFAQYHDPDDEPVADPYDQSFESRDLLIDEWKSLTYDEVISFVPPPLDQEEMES

P38 alpha kinase IC50, uM or % inhib @ conc. (uM): % inhib (human p38 kinase alpha; @ 10.0 uM): 39.0% @
U937 Cell IC50, uM or % inhib @ conc. (uM): % inhib [1, 2]: 29.0% @
Structure (SMILES): Cc1c(-c2ccncc2)c(-c2ccc(F)cc2)nn1CC(=O)N1CCC(N(C)C(=O)OC(C)(C)C)C1 (stereo not drawn) [Example B-2389]

P38 alpha kinase % inhib @ conc. (human p38 kinase alpha; @ 10.0 uM): 58.0% @
Structure (SMILES): COC(=O)[C@H](CCSC)NC(=O)Cn1nc(-c2ccc(F)cc2)c(-c2ccncc2)c1C [Example B-2324]
U937 Cell % inhib @ conc. ([1]; TNF production): 36.0% @

P38 alpha kinase % inhib @ conc. (human p38 kinase alpha; @ 10.0 uM): 54.0% @
Structure (SMILES): CCN(CC)C(=O)Cn1nc(-c2ccc(F)cc2)c(-c2ccncc2)c1C [Example B-2371]
U937 Cell % inhib @ conc. ([1]; TNF production): 36.0% @

pIC50 (human p38 kinase alpha; [3]): 5.50
pIC50 [1, 4]: < 6.00
Structure (SMILES): CNC(=O)CCC(NC(=O)COC)c1[nH]nc(-c2ccc(F)cc2)c1-c1ccncc1 (stereo not drawn) [Example B-0870]

P38 alpha kinase IC50, uM or % inhib @ conc. (uM): % inhib (human p38 kinase alpha; @ 10.0 uM): 83.0% @
U937 Cell IC50, uM or % inhib @ conc. (uM): % inhib [1, 2]: 18.0% @
Structure (SMILES): Cc1cccc(C)c1NC(=O)Cn1nc(-c2ccc(F)cc2)c(-c2ccncc2)c1C [Example B-2417]

inhibition at 1 µM (human p38 kinase alpha; @ 1.0 uM): 94%
Structure (SMILES): O=C(NCc1[nH]nc(-c2ccc(F)cc2)c1-c1ccncc1)c1ccc([N+](=O)[O-])o1 [Example B-0031]
inhibition at 10 µM ([1]; Homo sapiens, U-937, @ 10.0 uM, TNF production, U937 cells stimulated with LPS, read-out: U937 Cell % inhib @ conc.): 100%

pIC50 (human p38 kinase alpha; [3]): 6.04
Structure (SMILES): CC(NS(=O)(=O)c1cccc2cnccc12)c1[nH]nc(-c2ccc(F)cc2)c1-c1ccncc1 (stereo not drawn) [Example B-0490]
inhibition at 1 µM [1, 5]: 74%

pIC50 (human p38 kinase alpha; [3]): > 7.00
Structure (SMILES): COc1ccc(OC)c(S(=O)(=O)NCCc2[nH]nc(-c3ccc(F)cc3)c2-c2ccncc2)c1 [Example B-1085]
inhibition at 1 µM [1, 6]: 29%

pIC50 (human p38 kinase alpha; in vitro P38-alpha kinase): 7.70
pIC50 [1, 4]: < 6.00
Structure (SMILES): O=C(NCCCc1[nH]nc(-c2ccc(F)cc2)c1-c1ccncc1)NCCCn1ccnc1 [Example B-1297]

pIC50 (human p38 kinase alpha; [3]): 6.00
pIC50 [1, 4]: < 6.00
Structure (SMILES): O=C(NC(Cc1ccccc1)c1[nH]nc(-c2ccc(F)cc2)c1-c1ccncc1)c1ccc(F)cc1 (stereo not drawn) [Example B-0800]

pIC50 (human p38 kinase alpha; [3]): 5.27
Structure (SMILES): CC(NC(=O)c1cc(Cl)cc(Cl)c1)c1[nH]nc(-c2ccc(F)cc2)c1-c1ccncc1 (stereo not drawn) [Example B-0675]
U937 Cell % inhib @ conc. (uM) [1, 7]: 3.0% @

pIC50 (human p38 kinase alpha; in vitro P38-alpha kinase): 6.92
pIC50 [1, 4]: 5.30
Structure (SMILES): O=S(=O)(c1ccccc1F)N1CCC(c2[nH]nc(-c3ccc(F)cc3)c2-c2ccncc2)CC1 [Example B-1377]

pIC50 (human p38 kinase alpha; [3]): 6.47
Structure (SMILES): CC(NC(=O)c1ccccc1F)c1[nH]nc(-c2ccc(F)cc2)c1-c1ccncc1 (stereo not drawn) [Example B-0699]
U937 Cell % inhib @ conc. (uM) [1, 7]: 31.0% @

pIC50 (human p38 kinase alpha; [3]): 5.62
Structure (SMILES): COc1cccc(CC(=O)NC(C)c2[nH]nc(-c3ccc(F)cc3)c2-c2ccncc2)c1 (stereo not drawn) [Example B-0550]
inhibition at 1 µM [1, 5]: 14%

pIC50 (human p38 kinase alpha; [3]): 5.93
Structure (SMILES): CCS(=O)(=O)NC(CCC(=O)NC)c1[nH]nc(-c2ccc(F)cc2)c1-c1ccncc1 (stereo not drawn) [Example B-0877]
inhibition at 1 µM [1, 6]: 13%

pIC50 (human p38 kinase alpha; in vitro P38-alpha kinase): > 7.00
pIC50 [1, 4]: 6.32
Structure (SMILES): O=S(=O)(NCCCc1[nH]nc(-c2ccc(F)cc2)c1-c1ccncc1)c1ccccc1Br [Example B-1259]

P38 alpha kinase % inhib @ conc. (human p38 kinase alpha; @ 1.0 uM): 23% @
pIC50 ([1]; TNF production): 5.69
Structure (SMILES): O=C(NCc1[nH]nc(-c2ccc(F)cc2)c1-c1ccncc1)Nc1ccccc1F [Example B-0162]

pIC50 (human p38 kinase alpha; [3]): 6.37
Structure (SMILES): CCCCOc1ccc(S(=O)(=O)NCCc2[nH]nc(-c3ccc(F)cc3)c2-c2ccncc2)cc1 [Example B-1084]
inhibition at 1 µM [1, 6]: 29%

P38 alpha kinase IC50, uM or % inhib @ conc. (uM): % inhib (human p38 kinase alpha; @ 10.0 uM): 37.0% @
U937 Cell IC50, uM or % inhib @ conc. (uM): % inhib [1, 2]: 22.0% @
Structure (SMILES): COCCN(Cc1cccc(OC)c1)C(=O)Cn1nc(-c2ccc(F)cc2)c(-c2ccncc2)c1C [Example B-2394]

pIC50 (human p38 kinase alpha; [3]): 5.49
Structure (SMILES): O=C(NCCc1[nH]nc(-c2ccc(F)cc2)c1-c1ccncc1)c1ccc(C(F)(F)F)cc1 [Example B-1155]
inhibition at 1 µM [1, 6]: 30%

P38 alpha kinase IC50, uM or % inhib @ conc. (uM): % inhib (human p38 kinase alpha; @ 10.0 uM): 75.0% @
IC50 ([1]; TNF production, U937 cells stimulated with LPS, read-out: U937 Cell IC50, uM or % inhib @ conc. (uM): IC50): > 10 µM
Structure (SMILES): COc1ccc(CN(CCc2ccccc2)C(=O)Cn2nc(-c3ccc(F)cc3)c(-c3ccncc3)c2C)cc1 [Example B-2396]

pIC50 (human p38 kinase alpha; [3]): 5.97
pIC50 [1, 4]: < 6.00
Structure (SMILES): CCNC(=O)NC(CCC(=O)NC)c1[nH]nc(-c2ccc(F)cc2)c1-c1ccncc1 (stereo not drawn) [Example B-0883]

pIC50 (human p38 kinase alpha; [3]): 5.95
pIC50 [1, 4]: < 6.00
Structure (SMILES): COCC(=O)NC(Cc1ccccc1)c1[nH]nc(-c2ccc(F)cc2)c1-c1ccncc1 (stereo not drawn) [Example B-0810]

inhibition at 1 µM (human p38 kinase alpha; @ 1.0 uM): 94%
pIC50 [1, 4]: 5.56
Structure (SMILES): O=C(NCc1[nH]nc(-c2ccc(F)cc2)c1-c1ccncc1)c1ccc(F)cc1 [Example B-0042]
